# pIC50, pKi: −log10 of the molar value.
# Legend:
# Beta-secretase 1 [1] = biological target: T1, Beta-secretase 1 (Homo sapiens, UniProt P56817); test: Inhibition of human recombinant BACE-1 expressed in HEK293 cells assessed as inhibition of amyloid precursor protein cleavage into amyloid beta after 60 mins using Rh-EVNLDAEFK-Quencher as a substrate by FRET assay; type: cell-based
# Beta-secretase 1 [2] = biological target: T1, Beta-secretase 1; test: Noncompetitive inhibition of human recombinant BACE-1 by Dixon plot analysis
# T1 sequence (P56817 whole entry): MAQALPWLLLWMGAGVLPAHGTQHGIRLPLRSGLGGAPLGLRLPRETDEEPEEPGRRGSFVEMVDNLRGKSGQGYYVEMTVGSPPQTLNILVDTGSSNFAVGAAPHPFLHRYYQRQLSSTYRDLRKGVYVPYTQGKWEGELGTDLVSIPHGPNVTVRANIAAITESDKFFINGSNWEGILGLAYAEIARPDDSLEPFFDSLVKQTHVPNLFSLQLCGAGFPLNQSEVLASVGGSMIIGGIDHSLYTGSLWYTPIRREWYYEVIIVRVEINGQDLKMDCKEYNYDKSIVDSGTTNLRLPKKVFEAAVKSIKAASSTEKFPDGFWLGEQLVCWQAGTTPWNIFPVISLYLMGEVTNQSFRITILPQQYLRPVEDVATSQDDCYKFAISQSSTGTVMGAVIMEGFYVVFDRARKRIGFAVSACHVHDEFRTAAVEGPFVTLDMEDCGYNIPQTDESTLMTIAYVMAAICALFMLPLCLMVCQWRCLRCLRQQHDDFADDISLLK
Compound,pIC50 (Beta-secretase 1 [1]),pKi (Beta-secretase 1 [2])
CC(C)=CC1Oc2cc(O)ccc2-c2oc3c4c(cc(O)c3c(=O)c21)OC(C)(C)C=C4 (configuration not stated) [CYCLOMORUSIN],3.99,
CC(C)(O)CCc1c(-c2ccc(O)cc2O)oc2c3c(cc(O)c2c1=O)OC(C)(C)C=C3 [MORUSINOL],3.87,
CC(C)=CCc1c(-c2ccc(O)cc2O)oc2c(CC=C(C)C)c(O)cc(O)c2c1=O [KUWANON C],5.47,5.66
CC1(C)C=Cc2c(cc(O)c3c(=O)c4c(oc23)-c2ccc(O)cc2OC(C(C)(C)O)C4)O1 (configuration not stated) [NEOCYCLOMORUSIN],3.84,
C/C(=C/Cc1c(-c2ccc(O)cc2O)oc2c3c(cc(O)c2c1=O)OC(C)(CO)C=C3)CO (configuration not stated) [MORMIN],3.99,

# Other lines, results leading:
pIC50 (Beta-secretase 1 [1]),pKi (Beta-secretase 1 [2]),Compound
4.23,4.19,CC(C)=CCc1c(-c2ccc(O)cc2O)oc2c3c(cc(O)c2c1=O)OC(C)(C)C=C3 [MORUSIN]
4.22,4.08,O=c1cc(-c2ccc(O)cc2O)oc2cc(O)cc(O)c12 [NORARTOCARPETIN]
5.28,4.97,CC(C)=CCc1c(-c2ccc(O)c3c2OC(C)(C)C=C3)oc2cc(O)cc(O)c2c1=O [KUWANON A]
